This note sets out measurements from patent US11643474B2, “Peptide fusion protein” (KAGOSHIMA UNIVERSITY, priority 2018, dated 2023).

pKd: −log10 of the molar value.

The term kon denotes the rate constant with which the complex forms. Read a low kon as slow association. By koff is commonly meant the rate constant with which the complex falls apart. High values mean a short-lived complex, low ones a long-lived complex. For orientation: pKd means −log10 of the Kd, conventionally taken in molar units.

For one assay, the system named is human IgG. In words: Affinity measurement to IgG by surface plasmon resonance (BIAcore T200). It counts as binding. To be noted: ligand immobilized onto sensor chip, HBS-EP buffer pH 7.4. The procedure: The affinity analysis was performed by the following method. First, a solution containing equal amounts of 0.4 M EDC (1-ethyl-3-(3-dimethylaminopropyl)-carbodiimide) and 0.1 M sulfo-NHS (sulfo-N-hydroxysuccinimide)) was injected at a flow rate of […] onto a CMS sensor chip set in BIAcore T200 (GE healthcare), thereby activating the sensor chip. Then, under the condition of pH 5.5 (10 mM Na acetate), the purified protein (sfGFP-C-1Opt1) described above was immobilized onto the sensor chip. For the measurement, HBS-EP buffer (10 mM HEPES, 150 mM NaCl, 0.005% Tween 20, 3 mM EDTA, pH 7.4) was used, and the binding reaction was monitored by injecting 6.25, 12.5, 25, 50, 100, 200, and 400 nM human IgG for 180 seconds at a flow rate of […]. For measuring the dissociation reaction, only the buffer was injected for 600 seconds. The analysis of interaction parameters was performed using BIA evalution T100 software.
As Comparative Example 1, a scaffold protein (sfGFP having a His tag; DNA sequence: SEQ ID NO: 40, amino acid sequence: SEQ ID NO: 41) to which an IgG-binding peptide was not fused was expressed and purified in the same manner as in Example 1, and affinity was measured.
Proteins including two IgG-binding peptides, each consisting of the amino acid sequences represented by SEQ ID NO: 45, SEQ ID NO: 47, and SEQ ID NO: 49 (sfGFP-N C-2Opt1GS12 (DNA sequence: SEQ ID NO: 44), sfGFP-173 C-2Opt1 GS12 (DNA sequence: SEQ ID NO: 46), and sfGFP-173 C-2Opt1GS13 (DNA sequence: SEQ ID NO: 48)) were expressed and purified by the same method as in Example 1, and the affinity was measured.
As Comparative Example 2, the affinity measurement of the peptide (amino acid sequence: SEQ ID NO: 18) prepared by chemical synthesis was carried out in the same manner as in Example 1.
(In general: SPR reads the build-up and loss of mass on a sensor chip optically.)

For assay [1], the system named is human serum-derived γ-globulin. In words: Dynamic binding capacity (DBC) measurement on ligand-immobilized NHS-activated prepack column. The note with it: 1 mL column; 1 mg/mL γ-globulin at 1 mL/min; 10% breakthrough at 280 nm; equimolar ligand (7.3 mg protein or 0.5 mg peptide). The procedure:
To examine whether the IgG-binding peptide divalent fusion protein can be used as an affinity ligand for human antibody purification, the protein prepared in Example 2 (sfGFP-173 C-2Opt1 GS12) was immobilized on an NHS-activated prepack column (GE Healthcare), and the adsorption performance was evaluated. The protein-immobilized column was prepared by the following method. A syringe was used to feed the solution.
5 mL of 1 mM hydrochloric acid was fed to a NHS-activated prepack column with a volume of 1 mL to remove the isopropanol solution in the column. Then, 1 mL of a coupling solution (200 mM carbonate buffer, 500 mM sodium chloride, pH 8.3) containing 7.3 mg of an IgG-binding peptide fusion protein was fed and immobilized at room temperature for 1 hour. The unreacted NHS ester was blocked by adding tris-hydroxymethylaminomethane. Finally, 5 mL of an adsorption solution (20 mM phosphate buffer, 150 mM sodium chloride, pH 7.4) was fed and used for DBC measurement.
The DBC measurement was performed using a liquid chromatography instrument AKTAexplore (GE Healthcare). […] The DBC was determined from the amount of the sample fed until the value of an absorbance at 280 nm excluding the non-adsorbed component reached 10% of the absorbance of the entire sample. […]

“GPDCAYHRGELVWCTFH [Comparative Example 2, reference compound]” yielded a kon in the assay on human IgG (6.25-400 nM human IgG injected 180 s) of 330000 M⁻¹ s⁻¹. In the assay on human IgG (buffer only injected 600 s for dissociation), this sequence showed a koff of 0.0048 s⁻¹. For the same sequence, the pKd at human IgG (human IgG as analyte) was 7.85. Further, in assay [1], the “DBC (dynamic binding capacity)” value is given as 6.9 mg/mL-column.
